Results as given in PubChem BioAssay AID2060361 (Molecular Pharmacology Branch, DTP, NCI, 2025).

Tested on: 463943-066-T-J2-PDC tumor spheroids with HUVEC/MSC, viability
Test: Anticancer human tumor 463943-066-T-J2-PDC patient-derived colon adenocarcinoma cell line growth inhibition [TAK]
Conditions: for IC50: curve of first compound; for viability, T/C: stronger effect = lower value
In short: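 Tumor cells were grown as spheroids with HUVEC and hMSC (60:25:15) and treated with targeted agents combined with TAK-243 or ipatasertib. Drugs were tested in half-log steps down from near the clinical Cmax, or from 10 microM where Cmax was unknown.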

[1] = second compound 0.3 µM, first compound 0.0316 µM
[2] = second compound 0.3 µM, first compound 0.1 µM
[3] = second compound 0.3 µM, first compound 0.316 µM
[4] = second compound 0.3 µM, first compound 1 µM
[5] = second compound 0.949 µM, first compound 0.0316 µM
[6] = second compound 0.949 µM, first compound 0.1 µM
[7] = second compound 0.949 µM, first compound 0.316 µM
[8] = second compound 0.949 µM, first compound 1 µM
[9] = second compound 3 µM, first compound 0.0316 µM
[10] = second compound 3 µM, first compound 0.1 µM
[11] = second compound 3 µM, first compound 0.316 µM
[12] = second compound 3 µM, first compound 1 µM
[13] = second compound 9.49 µM, first compound 0.0316 µM
[14] = second compound 9.49 µM, first compound 0.1 µM
[15] = second compound 9.49 µM, first compound 0.316 µM
[16] = second compound 9.49 µM, first compound 1 µM
[17] = second compound 30 µM, first compound 0.0316 µM
[18] = second compound 30 µM, first compound 0.1 µM
[19] = second compound 30 µM, first compound 0.316 µM
[20] = second compound 30 µM, first compound 1 µM
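Also: spheroids exposed to drugs for seven days.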
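For viability, T/C in this document: 100% = DMSO vehicle control wells.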

## COc1c(OCCCN2CCOCC2)ccc2c3n(c(=NC(=O)c4cnc(N)nc4)nc12)CCN3 + CC(C)NCC(C(=O)N1CCN(c2ncnc3c2C(C)CC3O)CC1)c1ccc(Cl)cc1
Second compound 0.3 µM
  IC50: > 1 µM
Second compound 0.949 µM
  IC50: > 1 µM
Second compound 3 µM
  IC50: > 1 µM
Second compound 9.49 µM
  IC50: > 1 µM
Second compound 30 µM
  IC50: > 1 µM
Second compound 0.3 µM, first compound 0.00316 µM
  viability, T/C: 91.4%
Second compound 0.3 µM, first compound 0.01 µM
  viability, T/C: 91.3%
[1]
  viability, T/C: 85%
[2]
  viability, T/C: 77.1%
[3]
  viability, T/C: 70.3%
[4]
  viability, T/C: 66.5%
Second compound 0.949 µM, first compound 0.00316 µM
  viability, T/C: 88.6%
Second compound 0.949 µM, first compound 0.01 µM
  viability, T/C: 93.1%
[5]
  viability, T/C: 75.1%
[6]
  viability, T/C: 78.2%
[7]
  viability, T/C: 77.2%
[8]
  viability, T/C: 68.1%
Second compound 3 µM, first compound 0.00316 µM
  viability, T/C: 93.7%
Second compound 3 µM, first compound 0.01 µM
  viability, T/C: 86.8%
[9]
  viability, T/C: 83.5%
[10]
  viability, T/C: 79.8%
[11]
  viability, T/C: 79.8%
[12]
  viability, T/C: 77%
Second compound 9.49 µM, first compound 0.00316 µM
  viability, T/C: 81.3%
Second compound 9.49 µM, first compound 0.01 µM
  viability, T/C: 85.5%
[13]
  viability, T/C: 86.4%
[14]
  viability, T/C: 73.6%
[15]
  viability, T/C: 75.6%
[16]
  viability, T/C: 71.2%
Second compound 30 µM, first compound 0.00316 µM
  viability, T/C: 85.6%
Second compound 30 µM, first compound 0.01 µM
  viability, T/C: 87.5%
[17]
  viability, T/C: 74.6%
[18]
  viability, T/C: 73.9%
[19]
  viability, T/C: 66.5%
[20]
  viability, T/C: 71.2%

## Cc1nc(NC(=O)N2CCCC2C(N)=O)sc1-c1ccnc(C(C)(C)C(F)(F)F)c1 (stereo not given) + CC(C)NCC(C(=O)N1CCN(c2ncnc3c2C(C)CC3O)CC1)c1ccc(Cl)cc1
Second compound 0.3 µM
  IC50: > 10 µM
Second compound 0.949 µM
  IC50: > 10 µM
Second compound 3 µM
  IC50: > 10 µM
Second compound 9.49 µM
  IC50: > 10 µM
Second compound 30 µM
  IC50: > 10 µM
[1]
  viability, T/C: 106%
[2]
  viability, T/C: 99.8%
[3]
  viability, T/C: 105%
[4]
  viability, T/C: 87.8%
Second compound 0.3 µM, first compound 3.16 µM
  viability, T/C: 81%
Second compound 0.3 µM, first compound 10 µM
  viability, T/C: 79.3%
[5]
  viability, T/C: 104%
[6]
  viability, T/C: 89.9%
[7]
  viability, T/C: 91.8%
[8]
  viability, T/C: 89.2%
Second compound 0.949 µM, first compound 3.16 µM
  viability, T/C: 78.4%
Second compound 0.949 µM, first compound 10 µM
  viability, T/C: 78.1%
[9]
  viability, T/C: 98%
[10]
  viability, T/C: 100%
[11]
  viability, T/C: 88.4%
[12]
  viability, T/C: 88.8%
Second compound 3 µM, first compound 3.16 µM
  viability, T/C: 81.1%
Second compound 3 µM, first compound 10 µM
  viability, T/C: 75%
[13]
  viability, T/C: 89.6%
[14]
  viability, T/C: 95.3%
[15]
  viability, T/C: 90.7%
[16]
  viability, T/C: 86.9%
Second compound 9.49 µM, first compound 3.16 µM
  viability, T/C: 79.5%
Second compound 9.49 µM, first compound 10 µM
  viability, T/C: 80.7%
[17]
  viability, T/C: 92.7%
[18]
  viability, T/C: 94.4%
[19]
  viability, T/C: 88.2%
[20]
  viability, T/C: 92.8%
Second compound 30 µM, first compound 3.16 µM
  viability, T/C: 90.5%
Second compound 30 µM, first compound 10 µM
  viability, T/C: 76.6%
